# Data from US7417124B2, “Antibodies specific for phosphorylation sites and screening methods using the same antibodies” (Zeria Pharmaceutical Co., Ltd., priority 2003, dated 2008).
# Tested on: phosphorylation in the linker regions of Smad proteins
# Assay: Smad linker region phosphorylation in TGF-β-treated myofibroblasts, immunoprecipitation and immunoblotting with phosphorylation-specific antibodies
# Type: cell-based
# Details: myofibroblasts from rat liver, compounds 30 minutes before 200 pM TGF-β, FIG. 3
# Experimental: The phosphorylation of Smad2 and Smad3 was examined by western blotting using antibodies against Smad2 and Smad3 which were site-specifically phosphorylated after the immunoprecipitation with anti-Smad2 antibody and anti-Smad3 antibody.
# Myofibroblasts (MFB 2×10^6 cells/100 mm dish) from rat liver were cultured in DMEM medium (containing 5% fetal bovine serum) for several days and further cultured with 200 pM TGF-β (R&D Systems) for 30 minutes under the serum-free conditions. The cells were homogenized with RIPA buffer (10 mM Tris-HCl, pH 7.8/1% NP40/0.15M NaCl/1 mM EDTA/10 μg/ml aprotinin), and the resultant lysate was centrifuged at 15,000×g. The supernatant was incubated with Smad-specific antibodies and protein G-sepharose (Amersham Bioscience) to obtain immunoprecipitate. After the incubation, part of the precipitate was subjected to SDS-polyacrylamide gel electrophoresis, the obtained gel was transferred onto a PVDF membrane, and immunoblotting was performed using the antibodies specific for phosphorylation of the linker regions and C-terminal regions in Smad2 and Smad3. The detection was carried out by a chemiluminescence technique using HRP-labeled secondary antibody/anti-IgG, IgH antibody (Amersham Bioscience). […] The detected bands were quantified using an imaging analyzer.
compound,measurement,value
C[S+]([O-])c1ccc(-c2nc(-c3ccncc3)c(-c3ccc(F)cc3)[nH]2)cc1 (stereo not shown) [SB203580],phosphorylation in the linker regions of Smad proteins,inhibited
